# Data reported in ChEMBL document CHEMBL1201862, “PubChem BioAssay data set” (2004).
# Active and inactive are the calls of the source.
# Columns and labels:
# [1] = target: Benomyl/methotrexate resistance protein (Candida albicans, UniProt P28873); assay: Candida albicans Mdr1 pump blockade titration – singleplex, Cherry Pick2 set, dose response (AID 623992); format: functional; details: read-out: EC50_MICROM
# [2] = A Cell Based Secondary Assay to Explore Cytotoxicity in HepG2 Cells of Compounds that Modulate Mycobacterium tuberculosis in Media Containing Glycerol versus Media without Glycerol (2).; format: functional
# [3] = A Cell Based Secondary Assay to Explore Cytotoxicity in THP-1 Cells of Compounds that Modulate Mycobacterium tuberculosis in Media Containing Glycerol versus Media without Glycerol (2).; format: functional
# [4] = microbe, parasite or virus in culture; format: functional; details: Mycobacterium tuberculosis
# [5] = Vero cell cytotoxicity, cytotoxicity control for M. tuberculosis inhibitor project, purified and synthesized samples, set 3 (AID 504684); format: functional
# [6] = CCR5-tropic HIV-1 fusion blockers – cell-based, CCR5-tropic Env, dose response (AID 2279); format: functional
# Melanocortin receptor 4 = Melanocortin receptor 4 (Homo sapiens, UniProt P32245); assay: inhibitors of MC4R cAMP signaling – cell-based, TR-FRET, biased antagonists, dose response (AID 602298); format: functional;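 note: antagonist potency against agonist-stimulated cAMP production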
# [7] = cAMP pathway inhibition in counterscreen cell line – TR-FRET cAMP detection, counter-screen for MC4R biased antagonist project, dose response (AID 602305); format: functional, cell-based;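 note: U2OS cells stimulated with forskolin near its EC80 as the cAMP inducer; potency is for inhibition of forskolin-stimulated cAMP signaling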
# [8] = HEK-293T cell viability reduction – luminescence, B-cell screen hits, cytotoxicity control for BCR NF-kB inhibitor project, dose response (AID 489021); format: functional, cell-based;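 note: HEK-293T cells carrying an NF-kB luciferase reporter; cells exposed to compound for about 14 hours before viability readout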
# [9] = target: T1, Sentrin-specific protease 8 (Homo sapiens, UniProt Q96LD8); assay: inhibition of human SENP8 cleavage activity – biochemical, luminescence, SAR follow-up (AID 504501); format: functional
# T1 sequence (Q96LD8 whole entry): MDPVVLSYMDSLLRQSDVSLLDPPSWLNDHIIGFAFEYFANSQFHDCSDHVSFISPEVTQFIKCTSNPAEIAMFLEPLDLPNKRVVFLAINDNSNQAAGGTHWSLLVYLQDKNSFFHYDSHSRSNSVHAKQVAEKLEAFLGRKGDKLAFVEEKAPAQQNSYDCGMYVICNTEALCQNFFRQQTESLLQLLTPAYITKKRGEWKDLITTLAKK
# [10] = target: T2, Sentrin-specific protease 7 (Homo sapiens, UniProt Q9BQF6); assay: inhibition of human SENP7 cleavage activity – biochemical, luminescence, SAR follow-up (AID 504497); format: functional
# T2 sequence (Q9BQF6 whole entry): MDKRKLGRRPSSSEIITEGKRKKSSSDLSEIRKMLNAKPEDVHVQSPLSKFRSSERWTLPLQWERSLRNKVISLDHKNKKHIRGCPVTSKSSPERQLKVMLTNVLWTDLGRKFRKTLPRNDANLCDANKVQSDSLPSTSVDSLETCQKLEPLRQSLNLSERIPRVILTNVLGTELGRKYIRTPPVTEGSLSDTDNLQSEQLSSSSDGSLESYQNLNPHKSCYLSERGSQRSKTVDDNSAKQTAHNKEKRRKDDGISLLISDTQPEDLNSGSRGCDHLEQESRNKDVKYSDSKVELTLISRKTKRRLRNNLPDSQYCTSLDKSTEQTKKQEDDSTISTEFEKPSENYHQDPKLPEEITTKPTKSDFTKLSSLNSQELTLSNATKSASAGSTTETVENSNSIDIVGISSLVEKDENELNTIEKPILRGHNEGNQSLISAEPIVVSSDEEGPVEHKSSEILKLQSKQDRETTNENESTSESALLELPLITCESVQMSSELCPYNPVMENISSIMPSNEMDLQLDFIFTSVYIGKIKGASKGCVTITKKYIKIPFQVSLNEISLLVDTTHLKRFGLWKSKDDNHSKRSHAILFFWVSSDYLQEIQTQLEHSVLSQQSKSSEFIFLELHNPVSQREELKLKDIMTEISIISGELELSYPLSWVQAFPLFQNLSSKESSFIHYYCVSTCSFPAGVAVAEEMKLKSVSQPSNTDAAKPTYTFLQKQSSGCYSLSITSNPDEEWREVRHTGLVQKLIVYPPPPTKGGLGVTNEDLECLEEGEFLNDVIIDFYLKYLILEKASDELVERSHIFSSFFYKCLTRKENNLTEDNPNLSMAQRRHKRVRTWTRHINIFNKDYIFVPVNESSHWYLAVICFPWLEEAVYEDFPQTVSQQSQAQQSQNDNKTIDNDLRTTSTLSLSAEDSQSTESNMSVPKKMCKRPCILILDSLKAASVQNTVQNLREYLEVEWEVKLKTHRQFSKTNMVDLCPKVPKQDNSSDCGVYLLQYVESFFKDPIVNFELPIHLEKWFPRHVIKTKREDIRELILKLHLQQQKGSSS
# Caspase-3 = target: T3, Caspase-3 (Homo sapiens, UniProt P42574); assay: SAR Analysis of small molecule inhibitors of Sentrin-specific proteases (SENPs) using a Caspase-3 Selectivity assay. [Related pubchem assays (depositor defined):AID2540, AID2599, AID434973, AID489001]; format: functional
# T3 sequence (P42574 whole entry): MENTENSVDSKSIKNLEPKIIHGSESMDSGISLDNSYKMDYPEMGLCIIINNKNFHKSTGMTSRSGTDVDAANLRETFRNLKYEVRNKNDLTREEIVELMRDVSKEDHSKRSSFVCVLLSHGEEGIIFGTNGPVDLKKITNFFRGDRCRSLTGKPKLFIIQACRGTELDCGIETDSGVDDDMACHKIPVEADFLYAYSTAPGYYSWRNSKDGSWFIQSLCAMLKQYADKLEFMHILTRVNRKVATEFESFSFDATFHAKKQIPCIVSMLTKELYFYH
# [11] = target: T4, Sentrin-specific protease 6 (Homo sapiens, UniProt Q9GZR1); assay: SAR Analysis of small molecule inhibitors of Sentrin-specific protease 6 (SENP6) using a Luminescent assay. [Related pubchem assays (depositor defined):AID2582, AID2599]; format: functional
# T4 sequence (Q9GZR1 whole entry): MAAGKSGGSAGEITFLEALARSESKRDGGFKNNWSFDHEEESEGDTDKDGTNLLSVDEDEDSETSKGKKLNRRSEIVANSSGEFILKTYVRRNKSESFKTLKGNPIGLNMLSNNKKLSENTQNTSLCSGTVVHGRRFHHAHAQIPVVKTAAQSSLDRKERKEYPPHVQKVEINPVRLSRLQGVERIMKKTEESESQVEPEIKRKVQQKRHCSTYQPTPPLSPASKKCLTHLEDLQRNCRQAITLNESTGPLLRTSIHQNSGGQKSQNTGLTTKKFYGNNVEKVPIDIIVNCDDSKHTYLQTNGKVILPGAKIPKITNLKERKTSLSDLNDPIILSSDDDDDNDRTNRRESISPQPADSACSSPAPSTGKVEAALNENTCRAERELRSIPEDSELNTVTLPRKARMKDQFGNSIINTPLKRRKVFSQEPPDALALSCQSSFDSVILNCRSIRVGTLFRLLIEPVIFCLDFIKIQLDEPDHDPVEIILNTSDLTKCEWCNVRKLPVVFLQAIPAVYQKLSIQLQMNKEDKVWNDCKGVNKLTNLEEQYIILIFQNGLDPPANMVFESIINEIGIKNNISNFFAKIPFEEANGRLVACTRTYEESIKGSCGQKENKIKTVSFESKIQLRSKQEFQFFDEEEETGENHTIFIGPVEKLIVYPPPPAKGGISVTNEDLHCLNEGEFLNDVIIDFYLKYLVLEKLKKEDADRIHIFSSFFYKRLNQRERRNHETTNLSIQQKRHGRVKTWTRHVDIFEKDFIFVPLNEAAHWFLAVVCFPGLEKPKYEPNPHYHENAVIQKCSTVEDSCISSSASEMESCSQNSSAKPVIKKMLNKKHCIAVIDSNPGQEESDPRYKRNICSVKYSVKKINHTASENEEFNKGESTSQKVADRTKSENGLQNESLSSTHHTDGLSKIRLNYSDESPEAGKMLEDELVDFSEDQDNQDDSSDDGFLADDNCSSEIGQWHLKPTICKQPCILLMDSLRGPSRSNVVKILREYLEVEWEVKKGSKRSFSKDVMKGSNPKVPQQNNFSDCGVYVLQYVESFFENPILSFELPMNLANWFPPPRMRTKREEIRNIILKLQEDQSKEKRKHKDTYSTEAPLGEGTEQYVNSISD
# [12] = target: T5, Melanin-concentrating hormone receptor 1 (Homo sapiens, UniProt Q99705); assay: Late-stage fluorescence-based counterscreen for antagonists of the G-protein coupled receptor 7 (GPR7): cell-based dose response assay to identify antagonists of the melanin-concentrating hormone receptor 1 (MCHR1) Set 5.; format: functional
# T5 sequence (Q99705 whole entry): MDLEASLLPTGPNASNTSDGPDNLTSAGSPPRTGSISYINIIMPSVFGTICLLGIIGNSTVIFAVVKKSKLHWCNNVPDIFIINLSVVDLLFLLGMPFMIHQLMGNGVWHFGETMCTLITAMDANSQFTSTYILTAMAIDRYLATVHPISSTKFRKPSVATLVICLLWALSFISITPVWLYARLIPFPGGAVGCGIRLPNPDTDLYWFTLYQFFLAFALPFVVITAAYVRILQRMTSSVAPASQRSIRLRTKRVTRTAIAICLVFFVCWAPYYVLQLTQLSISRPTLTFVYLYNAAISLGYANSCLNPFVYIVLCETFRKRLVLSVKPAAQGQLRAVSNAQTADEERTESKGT
# [13] = target: T6, Neuropeptides B/W receptor type 1 (Homo sapiens, UniProt P48145); assay: human NPBW1 receptor blockade, IC50 – cell-based, fluorescence, dose response, set 5, late-stage follow-up (AID 588566); format: functional
# T6 sequence (P48145 whole entry): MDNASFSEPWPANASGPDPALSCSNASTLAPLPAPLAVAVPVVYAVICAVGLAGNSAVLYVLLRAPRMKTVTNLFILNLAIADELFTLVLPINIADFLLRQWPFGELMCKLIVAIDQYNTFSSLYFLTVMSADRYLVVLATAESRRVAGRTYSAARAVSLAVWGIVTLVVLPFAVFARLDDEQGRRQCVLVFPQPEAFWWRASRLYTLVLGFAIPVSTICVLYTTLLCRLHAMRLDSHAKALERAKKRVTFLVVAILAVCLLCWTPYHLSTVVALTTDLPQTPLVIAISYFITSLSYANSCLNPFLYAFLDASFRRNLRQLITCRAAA
# [14] = target: DNA dC->dU-editing enzyme APOBEC-3G (Homo sapiens, UniProt Q9HC16); assay: inhibition of APOBEC3G ssDNA deamination – biochemical, fluorescence, single-stranded DNA substrate, SAR follow-up (AID 602136); format: functional; details: read-out: IC50_Mean
# [15] = target: DNA dC->dU-editing enzyme APOBEC-3A (Homo sapiens, UniProt P31941); assay: SAR analysis of small molecule inhibitors of APOBEC3A DNA Deaminase via a fluorescence-based single-stranded DNA deaminase assay.; format: functional; details: read-out: IC50_Mean
# [16] = target: T5, Melanin-concentrating hormone receptor 1; assay: Late-stage fluorescence-based counterscreen for antagonists of the G-protein coupled receptor 7 (GPR7): cell-based dose response assay to identify antagonists of the melanin-concentrating hormone receptor 1 (MCHR1) Set 6.; format: functional
# [17] = target: T6, Neuropeptides B/W receptor type 1; assay: human NPBW1 receptor blockade, IC50 – cell-based, fluorescence, dose response, set 6, late-stage follow-up (AID 588583); format: functional
# [18] = target: Tyrosine-protein kinase SYK (Homo sapiens, UniProt P43405); format: functional
# [19] = target: Tyrosine-protein kinase ABL1 (Homo sapiens, UniProt P00519); format: functional
# [20] = target: Leucine-rich repeat serine/threonine-protein kinase 2 (Homo sapiens, UniProt Q5S007); format: functional;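 note: value from a broad kinome-wide panel profiling study in which LRRK2 was one of the kinases tested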
# Focal adhesion kinase 1 = Focal adhesion kinase 1 (Homo sapiens, UniProt Q05397); format: functional;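 note: measured as one member of a kinome panel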
# [21] = target: Insulin-like growth factor 1 receptor (Homo sapiens, UniProt P08069); assay: Navigating the Kinome. Panel member name: IGF1R; format: functional
# [22] = target: Fibroblast growth factor receptor 3 (Homo sapiens, UniProt P22607); format: functional
# Chain of Fibroblast growth factor receptor 3 (P22607 whole entry): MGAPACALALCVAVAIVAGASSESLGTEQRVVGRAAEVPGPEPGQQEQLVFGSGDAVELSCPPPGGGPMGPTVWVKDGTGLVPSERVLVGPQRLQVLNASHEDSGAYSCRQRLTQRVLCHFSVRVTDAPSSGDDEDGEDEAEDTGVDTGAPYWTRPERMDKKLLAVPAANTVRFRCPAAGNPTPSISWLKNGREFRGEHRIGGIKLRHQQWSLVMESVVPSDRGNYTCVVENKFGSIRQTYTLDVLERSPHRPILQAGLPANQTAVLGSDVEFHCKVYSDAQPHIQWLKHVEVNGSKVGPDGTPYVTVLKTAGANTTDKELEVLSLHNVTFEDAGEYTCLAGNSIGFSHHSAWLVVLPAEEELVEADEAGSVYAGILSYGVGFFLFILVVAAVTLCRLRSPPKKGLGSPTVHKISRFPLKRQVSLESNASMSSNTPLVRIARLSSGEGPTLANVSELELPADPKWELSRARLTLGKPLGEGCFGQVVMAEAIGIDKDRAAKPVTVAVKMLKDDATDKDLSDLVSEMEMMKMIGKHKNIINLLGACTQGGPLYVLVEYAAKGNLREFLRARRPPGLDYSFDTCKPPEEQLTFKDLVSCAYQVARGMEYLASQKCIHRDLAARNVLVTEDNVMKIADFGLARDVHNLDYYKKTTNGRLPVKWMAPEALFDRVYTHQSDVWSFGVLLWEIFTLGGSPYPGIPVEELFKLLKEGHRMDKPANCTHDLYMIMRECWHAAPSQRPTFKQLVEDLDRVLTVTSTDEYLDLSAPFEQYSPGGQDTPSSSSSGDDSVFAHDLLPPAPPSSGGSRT
# [23] = target: Hepatocyte growth factor receptor (Homo sapiens, UniProt P08581); format: functional;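 note: kinase panel profiling across the kinome, with MET as the panel member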
# [24] = target: Glycogen synthase kinase-3 beta (Homo sapiens, UniProt P49841); format: functional;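 note: value comes from a broad kinome profiling panel, with GSK3B as the panel member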
# Chain of Glycogen synthase kinase-3 beta (P49841 whole entry): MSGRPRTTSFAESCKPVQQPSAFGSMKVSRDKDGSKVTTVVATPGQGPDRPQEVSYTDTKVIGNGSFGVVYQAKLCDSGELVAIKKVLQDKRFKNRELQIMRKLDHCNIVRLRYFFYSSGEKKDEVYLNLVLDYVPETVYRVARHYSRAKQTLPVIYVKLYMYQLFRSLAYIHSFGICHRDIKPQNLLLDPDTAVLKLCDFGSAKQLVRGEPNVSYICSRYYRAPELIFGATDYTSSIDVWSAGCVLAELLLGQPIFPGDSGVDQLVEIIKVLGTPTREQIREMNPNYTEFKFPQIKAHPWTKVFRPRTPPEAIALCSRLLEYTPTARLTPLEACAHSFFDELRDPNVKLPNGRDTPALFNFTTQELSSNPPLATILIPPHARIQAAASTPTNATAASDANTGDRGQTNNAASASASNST
# [25] = target: Homeodomain-interacting protein kinase 2 (Homo sapiens, UniProt Q9H2X6); format: functional;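 note: measured within a kinome-wide kinase profiling panel, HIPK2 being one panel member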
# Chain of Homeodomain-interacting protein kinase 2 (Q9H2X6 whole entry): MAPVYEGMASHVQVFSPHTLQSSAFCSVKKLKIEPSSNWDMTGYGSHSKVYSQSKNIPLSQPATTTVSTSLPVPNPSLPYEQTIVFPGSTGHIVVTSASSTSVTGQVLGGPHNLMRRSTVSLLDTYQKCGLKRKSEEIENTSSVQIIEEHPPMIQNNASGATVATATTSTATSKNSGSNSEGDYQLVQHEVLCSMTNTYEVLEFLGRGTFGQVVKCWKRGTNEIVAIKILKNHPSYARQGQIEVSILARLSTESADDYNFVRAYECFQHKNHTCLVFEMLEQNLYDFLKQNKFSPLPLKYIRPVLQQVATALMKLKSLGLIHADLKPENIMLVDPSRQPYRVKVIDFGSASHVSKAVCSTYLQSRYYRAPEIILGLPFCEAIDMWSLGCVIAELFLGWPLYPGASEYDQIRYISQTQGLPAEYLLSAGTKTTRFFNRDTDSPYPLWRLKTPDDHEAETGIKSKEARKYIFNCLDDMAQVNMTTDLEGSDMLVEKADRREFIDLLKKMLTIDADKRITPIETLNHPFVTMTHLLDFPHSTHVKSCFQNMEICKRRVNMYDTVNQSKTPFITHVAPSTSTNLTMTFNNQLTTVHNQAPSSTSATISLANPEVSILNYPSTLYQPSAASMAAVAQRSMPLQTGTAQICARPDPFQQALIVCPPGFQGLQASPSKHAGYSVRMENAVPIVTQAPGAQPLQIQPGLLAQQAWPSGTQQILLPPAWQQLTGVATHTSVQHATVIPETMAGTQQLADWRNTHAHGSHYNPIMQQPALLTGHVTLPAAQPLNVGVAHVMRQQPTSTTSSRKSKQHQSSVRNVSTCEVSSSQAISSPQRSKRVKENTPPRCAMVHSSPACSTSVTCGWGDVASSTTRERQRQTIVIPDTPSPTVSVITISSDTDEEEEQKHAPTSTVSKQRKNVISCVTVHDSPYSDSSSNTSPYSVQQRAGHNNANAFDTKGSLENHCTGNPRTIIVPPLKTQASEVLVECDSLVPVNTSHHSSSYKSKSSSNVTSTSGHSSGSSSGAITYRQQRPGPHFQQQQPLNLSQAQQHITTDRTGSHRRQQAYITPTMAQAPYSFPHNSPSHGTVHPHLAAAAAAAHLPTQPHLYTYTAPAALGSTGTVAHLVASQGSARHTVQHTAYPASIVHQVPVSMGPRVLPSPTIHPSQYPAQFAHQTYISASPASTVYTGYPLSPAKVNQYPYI
# [26] = target: Cell division cycle 7-related protein kinase (Homo sapiens, UniProt O00311); format: functional;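 note: value obtained from a kinome-wide kinase panel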
# Chain of Cell division cycle 7-related protein kinase (O00311 whole entry): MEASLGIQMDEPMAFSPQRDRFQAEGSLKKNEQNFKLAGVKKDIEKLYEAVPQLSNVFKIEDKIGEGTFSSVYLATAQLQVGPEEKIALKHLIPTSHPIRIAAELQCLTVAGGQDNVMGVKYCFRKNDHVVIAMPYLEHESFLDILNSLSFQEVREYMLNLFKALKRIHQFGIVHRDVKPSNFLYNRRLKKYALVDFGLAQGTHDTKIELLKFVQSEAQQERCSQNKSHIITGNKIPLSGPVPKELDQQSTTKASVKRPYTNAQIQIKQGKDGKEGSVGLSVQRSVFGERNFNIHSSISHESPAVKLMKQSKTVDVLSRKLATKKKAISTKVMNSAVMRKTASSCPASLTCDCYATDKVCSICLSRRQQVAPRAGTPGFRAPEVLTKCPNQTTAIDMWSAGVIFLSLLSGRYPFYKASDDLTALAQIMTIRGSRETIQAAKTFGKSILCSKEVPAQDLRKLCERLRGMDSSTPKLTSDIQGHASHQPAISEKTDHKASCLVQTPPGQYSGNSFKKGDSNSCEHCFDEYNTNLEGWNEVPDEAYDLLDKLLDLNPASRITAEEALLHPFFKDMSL
# [27] = target: Cyclin-dependent kinase 2 (Homo sapiens, UniProt P24941); format: functional;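 note: CDK2 measured as one member of a broad kinome profiling panel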
# [28] = target: Interleukin-1 receptor-associated kinase 4 (Homo sapiens, UniProt Q9NWZ3); format: functional
# [29] = target: Mitogen-activated protein kinase kinase kinase kinase 4 (Homo sapiens, UniProt O95819); format: functional
# Chain of Mitogen-activated protein kinase kinase kinase kinase 4 (O95819 whole entry): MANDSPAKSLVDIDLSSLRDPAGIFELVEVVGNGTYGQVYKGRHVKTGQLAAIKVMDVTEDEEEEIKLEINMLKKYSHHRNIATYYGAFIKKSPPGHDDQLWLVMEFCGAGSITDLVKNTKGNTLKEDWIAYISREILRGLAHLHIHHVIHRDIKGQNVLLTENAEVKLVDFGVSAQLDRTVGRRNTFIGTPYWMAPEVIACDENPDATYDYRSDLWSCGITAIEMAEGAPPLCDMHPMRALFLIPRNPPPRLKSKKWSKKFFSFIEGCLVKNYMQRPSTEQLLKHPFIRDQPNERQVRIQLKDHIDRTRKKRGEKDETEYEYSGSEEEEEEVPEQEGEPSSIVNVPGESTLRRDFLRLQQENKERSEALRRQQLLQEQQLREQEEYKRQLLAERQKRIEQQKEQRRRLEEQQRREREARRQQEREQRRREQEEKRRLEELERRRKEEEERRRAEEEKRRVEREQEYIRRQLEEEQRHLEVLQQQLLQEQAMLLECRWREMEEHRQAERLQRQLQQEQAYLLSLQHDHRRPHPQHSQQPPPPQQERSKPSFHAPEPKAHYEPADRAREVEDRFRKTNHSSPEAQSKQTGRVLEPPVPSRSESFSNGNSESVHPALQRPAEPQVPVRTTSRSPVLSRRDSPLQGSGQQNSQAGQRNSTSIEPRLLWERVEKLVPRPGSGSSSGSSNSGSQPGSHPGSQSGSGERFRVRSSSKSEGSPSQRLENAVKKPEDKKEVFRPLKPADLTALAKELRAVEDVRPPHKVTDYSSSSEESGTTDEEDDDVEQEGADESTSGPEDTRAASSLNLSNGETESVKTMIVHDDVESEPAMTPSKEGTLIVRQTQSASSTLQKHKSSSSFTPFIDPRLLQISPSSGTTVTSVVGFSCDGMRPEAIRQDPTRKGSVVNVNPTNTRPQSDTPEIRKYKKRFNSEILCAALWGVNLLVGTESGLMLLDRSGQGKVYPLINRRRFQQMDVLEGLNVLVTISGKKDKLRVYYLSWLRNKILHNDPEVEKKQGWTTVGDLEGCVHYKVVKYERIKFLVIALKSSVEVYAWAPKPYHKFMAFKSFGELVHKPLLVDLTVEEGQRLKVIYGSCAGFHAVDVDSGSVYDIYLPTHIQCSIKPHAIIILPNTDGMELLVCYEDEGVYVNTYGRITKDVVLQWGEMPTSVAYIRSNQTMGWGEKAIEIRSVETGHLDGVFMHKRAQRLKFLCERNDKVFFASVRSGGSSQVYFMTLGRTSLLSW
# [30] = target: cAMP-dependent protein kinase catalytic subunit alpha (Homo sapiens, UniProt P17612); format: functional
# [31] = target: Dual specificity protein kinase CLK4 (Homo sapiens, UniProt Q9HAZ1); format: functional
# [32] = target: Serine/threonine-protein kinase pim-1 (Homo sapiens, UniProt P11309); format: functional
# [33] = target: Protein kinase C delta type (Homo sapiens, UniProt Q05655); format: functional
# Misshapen-like kinase 1 = Misshapen-like kinase 1 (Homo sapiens, UniProt Q8N4C8); format: functional;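 note: kinome panel screen with MINK as the panel member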
smiles,measurement,setting,value
O=C(c1ccc2c(c1)OCO2)N1CCC2(CC1)Oc1ccc(F)cc1C(=O)C21CC(c2ccccc2)=NO1 (stereo not drawn),EC50,[1],9.25 µM (active)
CC(C)NC(=O)c1sc(=S)n2c1[nH]c(=O)c1ccc(C(=O)NCCc3ccc(Cl)cc3)cc12,CC50,[2],> 50 µM (active)
same,CC50,[3],> 100 µM (active)
same,CC50,[4],> 40 µM (active)
same,CC50,[5],> 100 µM (active)
same,IC50,[6],41.5 µM (active)
O=C1NC[C@H](c2ccccc2)OC(=O)[C@@H](Cc2ccc(F)cc2)C/C=C\C[C@H]1CC(=O)N(CCO)Cc1ccccc1,IC50,Melanocortin receptor 4,> 64.6 µM (inactive)
same,IC50,[7],> 64.6 µM (inactive)
same,IC50,[8],30.3 µM (inactive)
Clc1ccc(N/N=C/c2c[nH]c3ccccc23)cc1,IC50,[9],> 99 µM (inactive)
same,IC50,[10],57 µM (active)
same,IC50,Caspase-3,> 99 µM (inactive)
same,IC50,[11],> 99 µM (inactive)
COc1c(F)cc(Oc2c(Cl)cnn(Cc3cccc4ccccc34)c2=O)cc1F,IC50,[12],7.43 µM (active)
same,IC50,[13],2.2 µM (active)
Cc1ccc(NC(=O)CCSc2nnc3scc(-c4ccccc4)n23)cc1,IC50,[14],> 99 µM (inactive)
same,IC50,[15],> 99 µM (inactive)
N#CC(c1c(F)cccc1F)c1c(Cl)cnn(Cc2cccc3ccccc23)c1=O (stereo not drawn),IC50,[16],1.61 µM (active)
same,IC50,[17],1.61 µM (active)
c1ccc(CNc2nc(Nc3cc(C4CC4)[nH]n3)c3sccc3n2)cc1,Ki,[18],0.0126 µM (active)
same,Ki,[19],0.01 µM (active)
same,Ki,[20],0.01 µM (active)
same,Ki,Focal adhesion kinase 1,0.00501 µM (active)
same,Ki,[21],0.0794 µM (active)
same,Ki,[22],0.00316 µM (active)
same,Ki,[23],0.794 µM (active)
O=c1cc(-c2ccc(F)cc2)[nH]c2c(-c3ccc(F)cc3)cnn12,Ki,[24],0.501 µM (active)
same,Ki,[25],0.2 µM (active)
same,Ki,[26],0.0501 µM (active)
same,Ki,[27],> 7.94 µM (inactive)
same,Ki,[28],> 10 µM (inactive)
same,Ki,[29],> 10 µM (inactive)
same,Ki,[30],> 7.94 µM (inactive)
same,Ki,[31],0.158 µM (active)
same,Ki,[32],0.0501 µM (active)
CC(C)Oc1ccc(-c2noc(-c3ccc(OCC(O)CO)cc3)n2)cc1Cl (stereo not drawn),Ki,[33],7.94 µM (active)
same,Ki,Misshapen-like kinase 1,6.31 µM (active)
same,Ki,[29],2 µM (active)
